Reference: patent US11971383B1, “Enhanced 3D porous architectured electroactive devices via impregnated porogens” (Iowa State University Research Foundation, Inc., priority 2018, dated 2024)

Target: T1, Acetylcholinesterase (ACHE) (Electrophorus electricus, UniProt O42275)
T1 construct: purchased Sigma Aldrich
Assay: ACHE biosensor inhibition versus incubation time (decrease in amperometric oxidation current)
Assay type: biochemical
Conditions: 1 μM paraoxon, 5 mM ACTH, 400 mV
Experimental: Sodium chloride (NaCl) was purchased from Sigma-Aldrich, ground using mortar and pestle, and filtered into different sizes with 8 in wire cloth sieves. Acetylcholinesterase (ACHE) from Electrophorus electricus was purchased from Sigma Aldrich as lyophilized powder (200-1000 units per mg) and was used without any further purification. ACHE ink aliquots were made by dissolving the enzyme (2 mg) in 1 mL of 50% glycerol and 50% 1× phosphate-buffer solution (0.1 M PBS, pH 7.0), aliquoted into 25 μL, and stored in a −80° C. freezer until use. […]. All other chemicals and solvents were purchased from Sigma-Aldrich and were used without any other purification unless otherwise stated. Water was filtered through a B-Pure Water Purification system (resistivity, […]).
SIIML electrodes were functionalized with ACHE using 1-ethyl-3-(3-dimethylaminopropyl) carbodiimide and N-hydroxysuccinimide (EDC/NHS) chemistry, which facilitated the functionalization of carboxyl groups to the amines within the ACHE enzyme.^39 In summary, the CO2 laser annealed SIIML electrodes were dipped in a solution of EDC/NHS mixture (50 mM EDC, 50 mM NHS) and incubated for 30 min on a tilter mixer. The electrodes were then rinsed with 1×PBS, excess water was blown off but not completely dried as the surface remained still “wetted”, this allowed for easier pipetting onto the slightly hydrophobic graphene surface. […]

T1 sequence (O42275 24-633): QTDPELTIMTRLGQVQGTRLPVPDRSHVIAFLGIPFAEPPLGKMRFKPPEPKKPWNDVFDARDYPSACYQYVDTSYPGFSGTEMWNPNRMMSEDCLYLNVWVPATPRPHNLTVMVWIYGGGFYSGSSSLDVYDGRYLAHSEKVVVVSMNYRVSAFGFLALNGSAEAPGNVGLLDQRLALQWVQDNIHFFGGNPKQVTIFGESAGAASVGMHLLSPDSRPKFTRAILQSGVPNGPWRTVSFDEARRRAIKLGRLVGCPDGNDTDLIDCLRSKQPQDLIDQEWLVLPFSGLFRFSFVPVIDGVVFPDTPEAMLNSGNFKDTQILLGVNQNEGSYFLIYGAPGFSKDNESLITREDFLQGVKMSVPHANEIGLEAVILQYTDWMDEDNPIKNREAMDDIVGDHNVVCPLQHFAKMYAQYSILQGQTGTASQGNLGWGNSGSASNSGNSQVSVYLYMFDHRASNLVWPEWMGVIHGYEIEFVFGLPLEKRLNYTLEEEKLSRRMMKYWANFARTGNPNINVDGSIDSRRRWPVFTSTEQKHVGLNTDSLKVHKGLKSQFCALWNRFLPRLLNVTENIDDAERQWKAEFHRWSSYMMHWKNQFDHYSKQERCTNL

## CCOP(=O)(OCC)Oc1ccc([N+](=O)[O-])cc1 [paraoxon]
After 100 seconds incubation, large standard deviations
  inhibition of the sensor (percent of ACHE inhibited): roughly 50%
After 500 seconds incubation, low standard deviation
  inhibition of the sensor (percent of ACHE inhibited): about 90%
